# According to patent US11780826B2 (Amgen Inc., priority 2017, dated 2023):
# System: Bovine cardiac myofibrils
# Assay: In vitro model of dose-dependent myofibril ATPase modulation (AC1.4, pyruvate kinase/lactate dehydrogenase-coupled ATPase assay at pCa25)
# Assay type: biochemical
# Settings: concentration at which ATPase activity was 1.4-fold higher than the bottom of the dose curve, mean of a minimum of two independent tests
# Procedure, shortened: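 ATP turnover tracked as NADH absorbance loss at 340 nm, coupled via pyruvate kinase/lactate dehydrogenase, with 1 mM ATP, 2 mM MgCl2 and 12 mM K-PIPES at pH 6.80 (22° C) under EGTA/CaCl2 calcium buffering. Substrate was detergent-treated bovine cardiac myofibrils; 4-parameter curve fit, AC1.4 averaged over at least two runs.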
row,AC1.4,Compound
1,0.7027 µM,"CS(=O)(=O)N1CCC[C@H](C(=O)N2[C@@H](C(=O)N[C@@H](c3cc(F)c(Cl)cc3F)C3CC3)C[C@H]3C[C@H]32)C1 [Example 277, (1R,3R,5R)-N-((R)-(4-chloro-2,5-difluorophenyl)(cyclopropyl)methyl)-2-(((3S)-1-(methylsulfonyl)-3-piperidinyl)carbonyl)-2-azabicyclo[3.1.0]hexane-3-carboxamide]"
2,0.7012 µM,"CS(=O)(=O)c1cccc(C(=O)N2[C@@H](C(=O)N[C@@H](c3cc(F)c(Cl)c(F)c3)C3CC3)C[C@H]3C[C@H]32)c1 [Example 278, (1R,3R,5R)-N-((R)-(4-chloro-3,5-difluorophenyl)(cyclopropyl)methyl)-2-(3-(methylsulfonyl)benzoyl)-2-azabicyclo[3.1.0]hexane-3-carboxamide]"
3,0.713 µM,"NS(=O)(=O)c1cccc(C(=O)N2C[C@@H](F)C[C@@H]2C(=O)N[C@@H](c2cc(F)c(Cl)cc2F)C2CC2)c1 [Example 280, (4S)-N-((R)-(4-chloro-2,5-difluorophenyl)(cyclopropyl)methyl)-4-fluoro-1-(3-sulfamoylbenzoyl)-D-prolinamide]"
4,0.7104 µM,"O=C(N[C@@H](c1ccc(C(F)(F)F)cc1F)C1CC1)[C@H]1CCCN1C(=O)c1cccc(S(=O)(=O)CC(F)(F)F)c1 [Example 281, N-((R)-cyclopropyl(2-fluoro-4-(trifluoromethyl)phenyl)methyl)-1-(3-((2,2,2-trifluoroethyl)sulfonyl)benzoyl)-D-prolinamide]"
5,0.7195 µM,"O=C(N[C@@H](c1cc(F)c(Cl)cc1F)C1COC1)[C@H]1C[C@H]2C[C@H]2N1C(=O)c1cncc(C(F)(F)F)c1 [Example 282, (1R,3R,5R)-N-((R)-(4-chloro-2,5-difluorophenyl)(3-oxetanyl)methyl)-2-((5-(trifluoromethyl)-3-pyridinyl)carbonyl)-2-azabicyclo[3.1.0]hexane-3-carboxamide]"
6,0.7288 µM,"N#CC1CN(S(=O)(=O)c2cccc(C(=O)N3CCC[C@@H]3C(=O)NCc3ccc(C4CC4)cc3)c2)C1 [Example 283, 1-((3-((3-cyano-1-azetidinyl)sulfonyl)phenyl)carbonyl)-N-(4-cyclopropylbenzyl)-D-prolinamide]"
7,0.7331 µM,"N#CC1CN(S(=O)(=O)N2CCC[C@H](C(=O)N3CCC[C@@H]3C(=O)NCc3ccc(F)cc3Cl)C2)C1 [Example 284, N-(2-chloro-4-fluorobenzyl)-1-(((3S)-1-((3-cyano-1-azetidinyl)sulfonyl)-3-piperidinyl)carbonyl)-D-prolinamide]"
8,0.7351 µM,"Cc1ccc([C@@H](C)NC(=O)[C@H]2CCCN2C(=O)[C@H]2CCCN(S(=O)(=O)N3CC(C#N)C3)C2)cc1 [Example 285, 1-(((3S)-1-((3-cyano-1-azetidinyl)sulfonyl)-3-piperidinyl)carbonyl)-N-((1R)-1-(4-methylphenyl)ethyl)-D-prolinamide]"
9,0.7437 µM,"CS(=O)(=O)N1CC(F)(c2cccc(C(=O)N3CCC[C@@H]3C(=O)N[C@@H](c3ccc(C(F)(F)F)cc3F)C3CC3)c2)C1 [Example 286, N-((R)-cyclopropyl(2-fluoro-4-(trifluoromethyl)phenyl)methyl)-1-(3-(3-fluoro-1-(methylsulfonyl)-3-azetidinyl)benzoyl)-D-prolinamide]"
10,0.7452 µM,Cc1c(F)cccc1CNC(=O)[C@H]1CCCN1C(=O)[C@H]1CCCN(S(=O)(=O)N2CC(C#N)C2)C1 [Example 288]
11,0.7506 µM,"O=C(N[C@@H](c1cc(F)c(C(F)(F)F)cc1F)C1CC1)[C@H]1C[C@H]2C[C@H]2N1C(=O)c1cc(C(F)(F)F)ccn1 [Example 289, (1R,3R,5R)-N-((R)-cyclopropyl(2,5-difluoro-4-(trifluoromethyl)phenyl)methyl)-2-((4-(trifluoromethyl)-2-pyridinyl)carbonyl)-2-azabicyclo[3.1.0]hexane-3-carboxamide]"
12,0.7542 µM,"N#CC1CN(S(=O)(=O)N2CCN[C@H](C(=O)N3CCC[C@@H]3C(=O)NCc3ccc(Cl)cc3F)C2)C1 [Example 290, N-(4-chloro-2-fluorobenzyl)-1-(((2S)-4-((3-cyano-1-azetidinyl)sulfonyl)-2-piperazinyl)carbonyl)-D-prolinamide]"
13,0.756 µM,"C[C@@H](NC(=O)[C@H]1CCCN1C(=O)[C@@H]1CN(S(=O)(=O)N2CC(C#N)C2)CCO1)c1ccc(Cl)cc1 [Example 291, N-((1R)-1-(4-chlorophenyl)ethyl)-1-(((2S)-4-((3-cyano-1-azetidinyl)sulfonyl)-2-morpholinyl)carbonyl)-D-prolinamide]"
14,0.7577 µM,"CS(=O)(=O)c1cncc(C(=O)N2CCCC[C@@H]2C(=O)N[C@@H](c2cc(F)c(Cl)cc2F)C2CC2)c1 [Example 292, (2R)-N-((R)-(4-chloro-2,5-difluorophenyl)(cyclopropyl)methyl)-1-((5-(methylsulfonyl)-3-pyridinyl)carbonyl)-2-piperidinecarboxamide]"
15,0.7603 µM,"CC[C@H](NC(=O)[C@H]1CCCN1C(=O)[C@H]1CCCN(S(=O)(=O)N2CC(C#N)C2)C1)c1ccc(C(F)(F)F)cc1F [Example 293, 1-(((3S)-1-((3-cyano-1-azetidinyl)sulfonyl)-3-piperidinyl)carbonyl)-N-((1S)-1-(2-fluoro-4-(trifluoromethyl)phenyl)propyl)-D-prolinamide]"
16,0.7671 µM,"O=C(N[C@@H](c1cc(F)c(Cl)cc1F)C1CC1)[C@H]1C[C@H]2C[C@H]2N1C(=O)c1ccnc(S(=O)(=O)C2CC2)c1 [Example 295, (1R,3R,5R)-N-((R)-(4-chloro-2,5-difluorophenyl)(cyclopropyl)methyl)-2-((2-(cyclopropylsulfonyl)-4-pyridinyl)carbonyl)-2-azabicyclo[3.1.0]hexane-3-carboxamide]"
17,0.7679 µM,"O=C(NCc1ccc(C(F)(F)F)cc1F)[C@H]1CCCN1C(=O)[C@H]1CCCN(S(=O)(=O)N2CC(O)(C(F)F)C2)C1 [Example 296, 1-(((3S)-1-((3-(difluoromethyl)-3-hydroxy-1-azetidinyl)sulfonyl)-3-piperidinyl)carbonyl)-N-(2-fluoro-4-(trifluoromethyl)benzyl)-D-prolinamide]"
18,0.7685 µM,"N#CC1CN(S(=O)(=O)N2CCC[C@H](C(=O)N3CCC[C@@H]3C(=O)NCc3ccc(F)c(C(F)(F)F)c3)C2)C1 [Example 297, 1-(((3S)-1-((3-cyano-1-azetidinyl)sulfonyl)-3-piperidinyl)carbonyl)-N-(4-fluoro-3-(trifluoromethyl)benzyl)-D-prolinamide]"
19,0.7905 µM,"CC(NC(=O)[C@@H](C)N(C)C(=O)c1cccc(S(=O)(=O)N2CC(C#N)C2)c1)c1ccc(Cl)cc1 (stereo partly drawn) [Example 298, N-((2R)-1-((1-(4-chlorophenyl)ethyl)amino)-1-oxopropan-2-yl)-3-((3-cyanoazetidin-1-yl)sulfonyl)-N-methylbenzamide]"
20,0.7923 µM,"C[C@H](C(=O)N[C@H](C)c1ccc(C(F)(F)F)cc1F)N(C)C(=O)[C@@H]1CN(S(=O)(=O)N2CC(C#N)C2)CCO1 [Example 299, (2S)-4-((3-cyano-1-azetidinyl)sulfonyl)-N-((2R)-1-(((1R)-1-(2-fluoro-4-(trifluoromethyl)phenyl)ethyl)amino)-1-oxo-2-propanyl)-N-methyl-2-morpholinecarboxamide]"
21,0.7928 µM,"CS(=O)(=O)c1cccc(C(=O)N2CCCC[C@@H]2C(=O)N[C@@H](c2ccc(C(F)(F)F)c(F)c2)C2CC2)c1 [Example 300, (2R)-N-((R)-cyclopropyl(3-fluoro-4-(trifluoromethyl)phenyl)methyl)-1-(3-(methylsulfonyl)benzoyl)-2-piperidinecarboxamide]"
22,0.7944 µM,"O=C(NCc1ccc(C(F)(F)F)cc1)[C@H]1CCCN1C(=O)[C@H]1CCCN(S(=O)(=O)N2CCC2c2ccccc2F)C1 (stereo partly drawn) [Example 302, (2R)-1-((3S)-1-((2-(2-fluorophenyl)azetidin-1-yl)sulfonyl)piperidine-3-carbonyl)-N-(4-(trifluoromethyl)benzyl)pyrrolidine-2-carboxamide]"
23,0.7956 µM,"CN(C)S(=O)(=O)c1cccc(C(=O)N2CCC[C@@H]2C(=O)NCc2ccc(Cl)c(F)c2)c1 [Example 303, N-(4-chloro-3-fluorobenzyl)-1-(3-(dimethylsulfamoyl)benzoyl)-D-prolinamide]"
24,0.8013 µM,"N#CC1CN(S(=O)(=O)c2cccc(C(=O)N3CCC[C@@H]3C(=O)N[C@@H](CO)c3ccc(Cl)cc3)c2)C1 [Example 305, N-((1R)-1-(4-chlorophenyl)-2-hydroxyethyl)-1-(3-((3-cyano-1-azetidinyl)sulfonyl)benzoyl)-D-prolinamide]"
25,0.8057 µM,"O=C(O)CS(=O)(=O)c1cccc(C(=O)N2[C@@H](C(=O)N[C@@H](c3cc(F)c(C(F)(F)F)cc3F)C3CC3)C[C@H]3C[C@H]32)c1 [Example 306, ((3-(((1R,3R,5R)-3-(((R)-cyclopropyl(2,5-difluoro-4-(trifluoromethyl)phenyl)methyl)carbamoyl)-2-azabicyclo[3.1.0]hexan-2-yl)carbonyl)phenyl)sulfonyl)acetic acid]"
26,0.8008 µM,"CS(=O)(=O)c1cccc(C(=O)N2[C@@H](C(=O)N[C@@H](c3ccc(C(F)(F)F)c(F)c3)C3CC3)C[C@H]3C[C@H]32)c1 [Example 307, (1R,3R,5R)-N-((R)-cyclopropyl(3-fluoro-4-(trifluoromethyl)phenyl)methyl)-2-(3-(methylsulfonyl)benzoyl)-2-azabicyclo[3.1.0]hexane-3-carboxamide]"
27,0.8085 µM,"N#CC1CN(S(=O)(=O)N2CCC[C@H](C(=O)N3CCC[C@@H]3C(=O)N[C@@H](c3ccc(Cl)cc3)C(F)(F)F)C2)C1 [Example 308, N-((1S)-1-(4-chlorophenyl)-2,2,2-trifluoroethyl)-1-(((3S)-1-((3-cyano-1-azetidinyl)sulfonyl)-3-piperidinyl)carbonyl)-D-prolinamide]"
